Test system: Sub-Populations of Crohn's Disease Patients
Test: CD-LAQ-201 sub-populations of Crohn's disease patients (Example 2)
Format: in vivo, human
Conditions: for Remission - N (%): % / Remission - N (%): N: week 8
Procedure: This study was conducted according and with similar requirements as presented in Example 1. […] Patients, who have received anti-TNFαs in the past, tend to reflect a more severe, refractory segment of the Crohn's disease population. […] This sub-cohort analysis describes remission rates at week 8 for patients who were classified as having a predominantly inflammatory disease (based on the Montreal classifications) versus those that have a fibrostenotic or penetrating disease.

[1] = Laq 0.5 mg, Oral steroids on Baseline NO
[2] = Laq 0.5 mg, Oral steroids on Baseline YES
[3] = Laq 0.5 mg, Previous Operations NO
[4] = Laq 0.5 mg, Previous Operations YES
[5] = Laq 0.5 mg, Previous use of anti-TNFαs NO
[6] = Laq 0.5 mg, Previous use of anti-TNFαs YES
[7] = Laq 1.0 mg, Oral steroids on Baseline NO
[8] = Laq 1.0 mg, Oral steroids on Baseline YES
[9] = Laq 1.0 mg, Previous Operations NO
[10] = Laq 1.0 mg, Previous Operations YES
[11] = Laq 1.0 mg, Previous use of anti-TNFαs NO
[12] = Laq 1.0 mg, Previous use of anti-TNFαs YES

Structure (SMILES): CCN(C(=O)c1c(O)c2c(Cl)cccc2n(C)c1=O)c1ccccc1 [laquinimod]
- effect on remission at week 8 with or without previous anti-TNFαs (0.5 mg): remains robust on both sub-populations
- effect on remission at week 8 in fibrostenotic or penetrating disease (0.5 mg or 1 mg): no effect
- effectiveness in anti-TNF refractory patients (FIG. 1) (0.5 mg/day laquinimod): robustly effective
- effectiveness in anti-TNF refractory patients (FIG. 1) (1 mg/day laquinimod): effective relative to placebo
- CDAI Change from Baseline - Mean ± SD (Laq 0.5 mg, Fibrostenotic): −9.3
- Responders70 - N (%): % (Laq 0.5 mg, Fibrostenotic): 42.9%
- Responders70 - N (%): N (Laq 0.5 mg, Fibrostenotic): 3
- Responders100 - N (%): % (Laq 0.5 mg, Fibrostenotic): 28.6%
- Responders100 - N (%): N (Laq 0.5 mg, Fibrostenotic): 2
- Remission - N (%): % (Laq 0.5 mg, Fibrostenotic): 14.3%
- Remission - N (%): N (Laq 0.5 mg, Fibrostenotic): 1
- CDAI Change from Baseline - Mean ± SD (Laq 0.5 mg, Inflammatory): −125.1
- Responders70 - N (%): % (Laq 0.5 mg, Inflammatory): 68.2%
- Responders70 - N (%): N (Laq 0.5 mg, Inflammatory): 15
- Responders100 - N (%): % (Laq 0.5 mg, Inflammatory): 63.6%
- Responders100 - N (%): N (Laq 0.5 mg, Inflammatory): 14
- Remission - N (%): % (Laq 0.5 mg, Inflammatory): about 60%
- Remission - N (%): N (Laq 0.5 mg, Inflammatory): 13
- Remission - N (%): % (Laq 0.5 mg, Inflammatory, listed as Laq): 59.1%
- CDAI Change from Baseline - Mean ± SD [1]: −85.3
- Responders70 - N (%): % [1]: 57.9%
- Responders70 - N (%): N [1]: 11
- Responders100 - N (%): % [1]: 47.4%
- Responders100 - N (%): N [1]: 9
- Remission - N (%): % [1]: about 40%
- Remission - N (%): N [1]: 8
- Remission - N (%): % (Laq 0.5 mg, Oral steroids on Baseline NO, listed as Laq): 42.1%
- CDAI Change from Baseline - Mean ± SD [2]: −119.8
- Responders70 - N (%): % [2]: 70.0%
- Responders70 - N (%): N [2]: 7
- Responders100 - N (%): % [2]: 70.0%
- Responders100 - N (%): N [2]: 7
- Remission - N (%): % [2]: approximately 60%
- Remission - N (%): N [2]: 6
- Remission - N (%): % (Laq 0.5 mg, Oral steroids on Baseline YES, listed as Laq): 60.0%
- CDAI Change from Baseline - Mean ± SD [3]: −118.1
- Responders70 - N (%): % [3]: 62.5%
- Responders70 - N (%): N [3]: 15
- Responders100 - N (%): % [3]: 58.3%
- Responders100 - N (%): N [3]: 14
- Remission - N (%): % [3]: higher than 50%
- Remission - N (%): N [3]: 13
- Remission - N (%): % (Laq 0.5 mg, Previous Operations NO, listed as Laq): 54.2%
- CDAI Change from Baseline - Mean ± SD [4]: 3.2
- Responders70 - N (%): % [4]: 60.0%
- Responders70 - N (%): N [4]: 3
- Responders100 - N (%): % [4]: 40.0%
- Responders100 - N (%): N [4]: 2
- Remission - N (%): % [4]: 20.0%
- Remission - N (%): N [4]: 1
- CDAI Change from Baseline - Mean ± SD [5]: −88.2
- Responders70 - N (%): % [5]: 63.6%
- Responders70 - N (%): N [5]: 7
- Responders100 - N (%): % [5]: 54.5%
- Responders100 - N (%): N [5]: 6
- Remission - N (%): % [5]: 54.5%
- Remission - N (%): N [5]: 6
- CDAI Change from Baseline - Mean ± SD [6]: −102.7
- Responders70 - N (%): % [6]: 61.1%
- Responders70 - N (%): N [6]: 11
- Responders100 - N (%): % [6]: 55.6%
- Responders100 - N (%): N [6]: 10
- Remission - N (%): % [6]: 44.4%
- Remission - N (%): N [6]: 8
- CDAI Change from Baseline - Mean ± SD (Laq 1.0 mg, Fibrostenotic): −65.8
- Responders70 - N (%): % (Laq 1.0 mg, Fibrostenotic): 41.7%
- Responders70 - N (%): N (Laq 1.0 mg, Fibrostenotic): 5
- Responders100 - N (%): % (Laq 1.0 mg, Fibrostenotic): 41.7%
- Responders100 - N (%): N (Laq 1.0 mg, Fibrostenotic): 5
- Remission - N (%): % (Laq 1.0 mg, Fibrostenotic): 16.7%
- Remission - N (%): N (Laq 1.0 mg, Fibrostenotic): 2
- CDAI Change from Baseline - Mean ± SD (Laq 1.0 mg, Inflammatory): −76.7
- Responders70 - N (%): % (Laq 1.0 mg, Inflammatory): 61.1%
- Responders70 - N (%): N (Laq 1.0 mg, Inflammatory): 11
- Responders100 - N (%): % (Laq 1.0 mg, Inflammatory): 38.9%
- Responders100 - N (%): N (Laq 1.0 mg, Inflammatory): 7
- Remission - N (%): % (Laq 1.0 mg, Inflammatory): 33.3%
- Remission - N (%): N (Laq 1.0 mg, Inflammatory): 6
- CDAI Change from Baseline - Mean ± SD [7]: −59.4
- Responders70 - N (%): % [7]: 50.0%
- Responders70 - N (%): N [7]: 9
- Responders100 - N (%): % [7]: 33.3%
- Responders100 - N (%): N [7]: 6
- Remission - N (%): % [7]: 22.2%
- Remission - N (%): N [7]: 4
- CDAI Change from Baseline - Mean ± SD [8]: −93.5
- Responders70 - N (%): % [8]: 58.3%
- Responders70 - N (%): N [8]: 7
- Responders100 - N (%): % [8]: 50.0%
- Responders100 - N (%): N [8]: 6
- Remission - N (%): % [8]: 33.3%
- Remission - N (%): N [8]: 4
- CDAI Change from Baseline - Mean ± SD [9]: −77.9
- Responders70 - N (%): % [9]: 55.6%
- Responders70 - N (%): N [9]: 10
- Responders100 - N (%): % [9]: 38.9%
- Responders100 - N (%): N [9]: 7
- Remission - N (%): % [9]: 33.3%
- Remission - N (%): N [9]: 6
- CDAI Change from Baseline - Mean ± SD [10]: −66.0
- Responders70 - N (%): % [10]: 50.0%
- Responders70 - N (%): N [10]: 6
- Responders100 - N (%): % [10]: 41.7%
- Responders100 - N (%): N [10]: 5
- Remission - N (%): % [10]: 16.7%
- Remission - N (%): N [10]: 2
- CDAI Change from Baseline - Mean ± SD [11]: −38.5
- Responders70 - N (%): % [11]: 27.3%
- Responders70 - N (%): N [11]: 3
- Responders100 - N (%): % [11]: 27.3%
- Responders100 - N (%): N [11]: 3
- Remission - N (%): % [11]: 18.2%
- Remission - N (%): N [11]: 2
- CDAI Change from Baseline - Mean ± SD [12]: −36.8
- Responders70 - N (%): % [12]: 27.8%
- Responders70 - N (%): N [12]: 5
- Responders100 - N (%): % [12]: 27.8%
